Key:
Details in all cases: 48 h
[1] = system: NOMO1; assay: cell viability relative to DMSO control; higher = less cytotoxic
Method in brief: (§1)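 NOMO1 or SEM cells were plated at 500 cells/well and P12-Ichikawa cells at 1000 cells/well in 1536-well plates (5 μl), after each leukemia line had been adapted for at least four passages in each medium. Pin dosing delivered library compounds in DMSO at 11 threefold concentrations, 47 μM to 0.79 nM. CellTiter-Glo One luminescence was read after 48 h at 37°C. Viability is reported as a per-plate percentage of DMSO wells, with cell-free wells as background.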

[2] = system: P12-Ichikawa; assay: as above
Method in brief: as §1

[3] = system: SEM cells; assay: as above
Method in brief: as §1

[4] = system: NOMO1; assay: AUC of viability dose-response curve (% viability x log10 dose units); higher = less sensitive
Method in brief: (§2)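 Seeding of medium-adapted leukemia cells was at 500 or 1000 cells/well in 1536-well plates, followed by 48 h at 37°C with library compounds in DMSO at 11 threefold doses from 47 μM to 0.79 nM. CellTiter-Glo One luminescence was normalised per plate to DMSO and cell-free wells and fitted as a four-parameter log-logistic function of log10 dose. Area under the curve was integrated by trapezoidal rule, with curves exceeding full viability scaled and curves failing quality control removed.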

[5] = system: P12-Ichikawa; assay: as above
Method in brief: as §2

c1ccc(CCCN2CCN(CCOC(c3ccccc3)c3ccccc3)CC2)cc1
cell viability [%]
Details	[1]	[2]	[3]
HPLM + 10% dialyzed FBS, 0.000781 µM	91.4	89.2	27.6
HPLM + 10% dialyzed FBS, 0.00234 µM	95.1	90.8	98.3
HPLM + 10% dialyzed FBS, 0.00702 µM	101	104	99.1
HPLM + 10% dialyzed FBS, 0.0211 µM	100	95.5	103
HPLM + 10% dialyzed FBS, 0.0632 µM	85	99.2	97.9
HPLM + 10% dialyzed FBS, 0.19 µM	100	91.3	104
HPLM + 10% dialyzed FBS, 0.569 µM	92.9	89.7	87.4
HPLM + 10% dialyzed FBS, 1.71 µM	103	87.5	99.9
HPLM + 10% dialyzed FBS, 5.12 µM	83.1	91.6	87.1
HPLM + 10% dialyzed FBS, 15.4 µM	78.9	77.3	33.9
HPLM + 10% dialyzed FBS, 46.1 µM	53.9	67.3	44.6
RPMI 5 mM glucose + 10% FBS, 0.000781 µM	80.3	91.4	69.2
RPMI 5 mM glucose + 10% FBS, 0.00234 µM	83.3	97.1	106
RPMI 5 mM glucose + 10% FBS, 0.00702 µM	96	94.4	104
RPMI 5 mM glucose + 10% FBS, 0.0211 µM	99.5	94.5	98
RPMI 5 mM glucose + 10% FBS, 0.0632 µM	94.9	93.9	91.7
RPMI 5 mM glucose + 10% FBS, 0.19 µM	90.3	94	85.9
RPMI 5 mM glucose + 10% FBS, 0.569 µM	85.6	98.2	102
RPMI 5 mM glucose + 10% FBS, 1.71 µM	76.1	90.2	89
RPMI 5 mM glucose + 10% FBS, 5.12 µM	83.3	92.3	91
RPMI 5 mM glucose + 10% FBS, 15.4 µM	78	78.4	19.2
RPMI 5 mM glucose + 10% FBS, 46.1 µM	73.8	55	61.8
RPMI 5 mM glucose + 10% dialyzed FBS, 0.000781 µM	89.3	83.7	78.9
RPMI 5 mM glucose + 10% dialyzed FBS, 0.00234 µM	97.3	88.3	103
RPMI 5 mM glucose + 10% dialyzed FBS, 0.00702 µM	92.7	88	114
RPMI 5 mM glucose + 10% dialyzed FBS, 0.0211 µM	96.5	91.4	100
RPMI 5 mM glucose + 10% dialyzed FBS, 0.0632 µM	89.7	94.1	99.4
RPMI 5 mM glucose + 10% dialyzed FBS, 0.19 µM	92.5	85	96
RPMI 5 mM glucose + 10% dialyzed FBS, 0.569 µM	85.5	94.7	73
RPMI 5 mM glucose + 10% dialyzed FBS, 1.71 µM	86.2	87.1	96.5
RPMI 5 mM glucose + 10% dialyzed FBS, 5.12 µM	86.3	88.5	92.5
RPMI 5 mM glucose + 10% dialyzed FBS, 15.4 µM	66.8	75.2	23
RPMI 5 mM glucose + 10% dialyzed FBS, 46.1 µM	24.3	38.3	50.5

AUC of viability dose-response curve
Details	HPLM + 10% dialyzed FBS	RPMI 5 mM glucose + 10% FBS	RPMI 5 mM glucose + 10% dialyzed FBS
[4]	434	409	405
[5]	431	432	406

FC1=C(C=C(C\C2=N\NC(=O)C3=C2C=CC=C3)C=C1)C(=O)N4CCN(CC4)C(=O)C5CC5
cell viability [%]
Details	HPLM + 10% dialyzed FBS	RPMI 5 mM glucose + 10% FBS	RPMI 5 mM glucose + 10% dialyzed FBS
[2], 0.000781 µM	81.1	81.6	78.9
[2], 0.00234 µM	90.8	84.1	87.3
[2], 0.00702 µM	94	86.7	86.5
[2], 0.0211 µM	96.2	88.2	87.1
[2], 0.0632 µM	99	88.7	91.2
[2], 0.19 µM	87.4	86.5	93.2
[2], 0.569 µM	95.6	86.1	82
[2], 1.71 µM	85.7	82.5	82.1
[2], 5.12 µM	85.5	83.8	78.9
[2], 15.4 µM	88.3	72.1	73
[2], 46.1 µM	49.4	38.9	53.9
[3], 0.000781 µM	80.9	94.7	71.6
[3], 0.00234 µM	84	95.8	79
[3], 0.00702 µM	100	103	92
[3], 0.0211 µM	99	109	70.5
[3], 0.0632 µM	97	107	77.7
[3], 0.19 µM	94.9	105	81.3
[3], 0.569 µM	85.7	92.8	74.8
[3], 1.71 µM	91.6	87.1	78.2
[3], 5.12 µM	86.5	76.3	62.4
[3], 15.4 µM	19.7	13.1	17.5
[3], 46.1 µM	41.1	26.5	24.8

AUC of viability dose-response curve
Details	HPLM + 10% dialyzed FBS	RPMI 5 mM glucose + 10% FBS	RPMI 5 mM glucose + 10% dialyzed FBS
[4]	439	400	422
[5]	421	390	393
